Data taken from patent US8686050B2, “Diglycidic ether derivative therapeutics and methods for their use” (British Columbia Cancer Agency Branch, priority 2008, dated 2014).
Several values for one entry are separate records, joined by “and”; a condition that tells them apart may be missing. Equal values may be shown once.

Experiments:
AR [1] = target: T1, AR (Homo sapiens, UniProt P10275, T878A); assay: PSA (6.1 kb)-luciferase (p6.1luc) reporter in LNCaP cells; type: cell-based; parameters: LNCaP cells express endogenous AR and secrete prostate-specific antigen (PSA); endogenous in cells; host or cells: LNCaP
T1 sequence (P10275 1-920 T878A): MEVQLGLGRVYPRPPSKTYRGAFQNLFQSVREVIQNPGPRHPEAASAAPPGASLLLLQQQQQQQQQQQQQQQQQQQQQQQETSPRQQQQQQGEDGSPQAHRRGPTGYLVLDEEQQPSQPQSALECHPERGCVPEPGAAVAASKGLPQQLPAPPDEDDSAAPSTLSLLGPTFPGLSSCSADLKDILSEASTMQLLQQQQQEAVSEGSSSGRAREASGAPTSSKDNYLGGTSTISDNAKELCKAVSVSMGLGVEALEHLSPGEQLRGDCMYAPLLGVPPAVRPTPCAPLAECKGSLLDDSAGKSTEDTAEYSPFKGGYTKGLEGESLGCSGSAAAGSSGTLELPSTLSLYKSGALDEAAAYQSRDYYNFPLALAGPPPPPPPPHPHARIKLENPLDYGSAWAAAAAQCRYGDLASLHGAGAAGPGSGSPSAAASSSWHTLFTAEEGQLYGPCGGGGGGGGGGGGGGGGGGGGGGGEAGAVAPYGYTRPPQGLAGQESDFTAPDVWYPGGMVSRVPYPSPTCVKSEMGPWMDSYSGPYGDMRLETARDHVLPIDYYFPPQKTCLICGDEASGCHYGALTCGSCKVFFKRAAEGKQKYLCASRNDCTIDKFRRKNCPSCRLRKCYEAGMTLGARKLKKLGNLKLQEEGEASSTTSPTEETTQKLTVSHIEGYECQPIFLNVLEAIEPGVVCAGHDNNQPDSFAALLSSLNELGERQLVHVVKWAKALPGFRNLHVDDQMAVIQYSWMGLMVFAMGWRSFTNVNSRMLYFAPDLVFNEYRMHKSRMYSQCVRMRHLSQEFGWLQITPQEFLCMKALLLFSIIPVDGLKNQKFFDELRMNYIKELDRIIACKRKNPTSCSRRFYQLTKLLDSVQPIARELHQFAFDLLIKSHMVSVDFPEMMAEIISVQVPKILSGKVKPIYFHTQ
From the text: LNCaP cells were employed initially for all experiments because they are well-differentiated human prostate cancer cells in which ligand-independent activation of the AR by FSK has been characterized (Nazareth et al 1996 J. Biol. Chem. 271, 19900-19907; and Sadar 1999 J. Biol. Chem. 274, 7777-7783). LNCaP cells express endogenous AR and secrete prostate-specific antigen (PSA) (Horoszewicz et al 1983 Cancer Res. 43, 1809-1818). LNCaP cells can be grown either as monolayers in cell culture or as tumors in the well-characterized xenograft model that progresses to androgen independence in castrated hosts (Sato et al 1996 J. Steroid Biochem. Mol. Biol. 58, 139-146; Gleave et al 1991 Cancer Res. 51, 3753-3761; Sato et al 1997 Cancer Res. 57, 1584-1589; and Sadar et al 2002 Mol. Cancer. Ther. 1(8), 629-637). […] Small molecules that specifically target the AR-NTD should have no effect on PC3 cells. This means that they should not alter the proliferation of PC3 cells if they specifically block the AR to mediate their inhibitory effects. R1881 was employed since it is stable and avoids problems associated with the labile physiological ligand dihydrotestosterone (DHT). Reporter specificity may be determined using several alternative reporter gene constructs. Some well characterized ARE-driven reporter gene constructs that have been used extensively are the PSA (6.1 kb) enhance/promoter which contains several AREs and is highly inducible by androgens as well as by FSK (Ueda et al 2002 A J. Biol. Chem. 277, 7076-7085) and the ARR3-thymidine kinase (tk)-luciferase, which is an artificial reporter construct that contains three tandem repeats of the rat probasin ARE1 and ARE2 regions upstream of a luciferase reporter (Snoek et al 1996 J. Steroid Biochem. Mol. Biol. 59, 243-250).
To ensure that the inhibitory effects of PNG 01-185 extract on endogenous PSA protein was at the transcriptional level, reporter gene constructs were also examined. Activation of the endogenous AR was measured in LNCaP human prostate cancer cells by measuring androgen-responsive reporters that contain androgen response elements (AREs) such as the PSA-luciferase reporter gene construct or the ARR3-luciferase reporter. LNCaP cells maintained as monolayers were transfected with PSA-luciferase and were used to screen the crude extracts prepared from marine sponges as well as some selected commercial compounds. […] R1881 (1 nM) was used to mediate ligand-dependent activation of the AR and concentrations of FSK (50 μM) were used to mediate ligand-independent activation of the AR.

[2] = target: T2, Gal4 DBD-AR1-558 (AR NTD) (Homo sapiens, UniProt P10275); assay: Transactivation of the AR NTD (Gal4 DBD-AR1-558 with 5xGal4UAS-luciferase) in LNCaP cells; type: cell-based; conditions: for inhibition at 20 µM: read-out: inhibition of Fsk activation of Ga14ARN
T2 construct: cloning amino acids 1-558 of the human AR NTD into the C-terminus of Gal4 DBD; expressed in transfected cells; host or cells: LNCaP
T2 sequence (P10275 1-558): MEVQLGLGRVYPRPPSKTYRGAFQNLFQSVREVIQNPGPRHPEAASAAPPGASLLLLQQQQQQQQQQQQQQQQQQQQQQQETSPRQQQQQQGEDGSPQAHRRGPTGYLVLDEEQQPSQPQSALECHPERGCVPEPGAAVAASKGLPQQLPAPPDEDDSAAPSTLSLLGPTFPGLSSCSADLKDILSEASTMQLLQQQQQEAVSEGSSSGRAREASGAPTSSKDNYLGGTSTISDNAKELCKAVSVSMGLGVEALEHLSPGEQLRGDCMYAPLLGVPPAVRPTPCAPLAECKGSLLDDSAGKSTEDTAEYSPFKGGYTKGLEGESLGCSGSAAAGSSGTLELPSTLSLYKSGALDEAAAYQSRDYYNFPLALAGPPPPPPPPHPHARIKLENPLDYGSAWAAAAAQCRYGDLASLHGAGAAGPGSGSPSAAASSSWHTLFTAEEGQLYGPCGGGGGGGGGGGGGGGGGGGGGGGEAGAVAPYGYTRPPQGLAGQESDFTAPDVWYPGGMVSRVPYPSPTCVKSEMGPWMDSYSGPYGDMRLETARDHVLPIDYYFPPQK
From the text: These fractions were next tested for their ability to inhibit the AR NTD. […] Extracts identified above were screened by such assays as well as some compounds purchased from commercial suppliers.
Expression vectors for these chimeric proteins were cotransfected into LNCaP cells with a reporter gene containing the Gal4-binding site as cis-acting elements (p5×Gal4UAS-TATA-luciferase).

AR [3] = target: T1, AR; assay: ARR3-luciferase reporter in LNCaP cells; type: cell-based; parameters: LNCaP cells express endogenous AR and secrete prostate-specific antigen (PSA); endogenous in cells; host or cells: LNCaP; conditions: read-out: inhibition of R1881 activation of ARR31uc
From the text: LNCaP cells were employed initially for all experiments because they are well-differentiated human prostate cancer cells in which ligand-independent activation of the AR by FSK has been characterized (Nazareth et al 1996 J. Biol. Chem. 271, 19900-19907; and Sadar 1999 J. Biol. Chem. 274, 7777-7783). LNCaP cells express endogenous AR and secrete prostate-specific antigen (PSA) (Horoszewicz et al 1983 Cancer Res. 43, 1809-1818). LNCaP cells can be grown either as monolayers in cell culture or as tumors in the well-characterized xenograft model that progresses to androgen independence in castrated hosts (Sato et al 1996 J. Steroid Biochem. Mol. Biol. 58, 139-146; Gleave et al 1991 Cancer Res. 51, 3753-3761; Sato et al 1997 Cancer Res. 57, 1584-1589; and Sadar et al 2002 Mol. Cancer. Ther. 1(8), 629-637). […] Reporter specificity may be determined using several alternative reporter gene constructs. […]
To ensure that the inhibitory effects of PNG 01-185 extract on endogenous PSA protein was at the transcriptional level, reporter gene constructs were also examined. Activation of the endogenous AR was measured in LNCaP human prostate cancer cells by measuring androgen-responsive reporters that contain androgen response elements (AREs) such as the PSA-luciferase reporter gene construct or the ARR3-luciferase reporter. […]

LNCaP xenografts = assay: LNCaP subcutaneous xenografts in castrated mice; type: in vivo, NOD-SCID male mice; conditions: castrated mice
Description: Six to eight-week old male athymic SCID mice were inoculated subcutaneously in the flank region via a 27-gauge needle with a 150 μl suspension of LNCaP or PC3 human prostate cancer cells (1×10^6 cells). The inoculations took place while the animal was under isofluorane anaesthesia. The tumor take rate is approximately 75%. Mice bearing tumors of 100 mm^3 were randomly assigned to treatment groups. Castration was performed as described below. Tumor volume (formula: L×W×H×0.5236) was measured in mice bearing LNCaP subcutaneous tumors that became palpable or visible and at least 40 mm^3. The animals were monitored daily and tumors were measured every 5 days.

[4] = LNCaP, at 12.5 μM, read-out: inhibition of R1881 activation of p6.1luc

SMILES: CC(C)(c1ccc(OCC(O)CO)cc1)c1ccc(OCC(O)CI)cc1 (centres unmarked)
- inhibition at 12.5 µM (AR [1]; [4]): 20%
- inhibition at 20 µM (AR [1]; LNCaP, at 20 μM, read-out: inhibition of R1881 activation of p6.1luc): 33%
- inhibition at 20 µM ([2]; LNCaP): 7%

SMILES: CC(C)(c1ccc(OCC(O)CO)cc1)c1ccc(OCC(O)CO)cc1 (centres unmarked)
- inhibition at 50 µM (AR [3]): 10%

SMILES: CC(C)(c1ccc(OCC(O)CCl)cc1)c1ccc(OCC(O)CCl)cc1 (racemic) [BADGE.2HCl, Racemic BADGE×2HCl]
- LNCaP tumor volume at start of treatment, intratumoral (LNCaP xenografts; I.T. delivery): 109.6±17.4 mm^3
- size of LNCaP xenograft tumors, intratumoral injection (LNCaP xenografts; I.T. every 5 days, 20 mg/kg body weight): reduced the size of the tumors
- LNCaP tumor volume at the duration (end) of the experiment, intratumoral (LNCaP xenografts; i.t. every 5 days, five doses): 79.0±63.6 mm^3

SMILES: CC(C)(c1ccc(OCC(O)CCl)cc1)c1ccc(OCC(O)CCl)cc1 (centres unmarked) [drawing 123]
- inhibition at 12.5 µM (AR [1]; [4]): 69%
- inhibition of R1881 activation of p6.1luc (AR [1]; at 12.5 μM): 63%
- inhibition at 12.5 µM ([2]; LNCaP, read-out: inhibition of Fsk activation of Ga14ARN, at 12.5 μM): 79%

SMILES: CC(C)(c1ccc(OCC(O)CCl)cc1)c1ccc(OCC(O)CCl)cc1 (centres unmarked) [drawing 124]
- inhibition of R1881 activation of p6.1luc (AR [1]; at 12.5 μM): 55%
- inhibition of R1881 activation of p6.1luc (AR [1]; concentration not given): 34.8%
- inhibition of Fsk activation of Ga14ARN ([2]; at 12.5 μM): 88%

SMILES: CC(C)(c1ccc(OCC(O)CI)cc1)c1ccc(OCC(O)CI)cc1 (centres unmarked) [drawing 125]
- inhibition at 12.5 µM (AR [1]; [4]): 35%
- inhibition of R1881 activation of p6.1luc (AR [1]; at 12.5 μM): 33%
- inhibition at 20 µM ([2]; LNCaP): 33%

SMILES: CC(C)(c1ccc(OCC(O)CI)cc1)c1ccc(OCC(O)CI)cc1 (centres unmarked) [drawing 126]
- inhibition of R1881 activation of p6.1luc (AR [1]; at 12.5 μM): 42% and 29%
